Test results reported in patent US8420100B2, “Tumor suppressor activating polypeptides and uses thereof” (Department of Biotechnology, priority 2006, dated 2013).

Legend:
[1] = system: p53-driven p21 promoter in HEK 293 (p53+/+) cells; experiment: p21 luciferase reporter assay in HEK 293 (p53+/+) cells; assay type: cell-based; conditions: 10 μM peptide, 12 h
Experimental: (§1) TAT-SMAR1 WT peptide (P44) modulates p53 function: To examine whether P44 peptide could alone activate p53^−, luciferase reporter assays were performed following treatment of cells with the chimeric TAT-SMAR1 derived peptides. HEK 293 (p53^+/+) cells were transfected with p21 expression plasmid having luciferase reporter gene and K562 (p53^−/−) cells were co-transfected with p21 luciferase reporter and p53 constructs. […] (FIG. 2A, bar 3) and about 1.5 fold activation in p53^−/− cell line (FIG. 2B, bar 4).
(§2) FIG. 2. P44 peptide activates the p53-driven p21 gene expression in reporter assays. p21 promoter activity was checked in both HEK 293 (p53^+/+) (A) and K562 (P53^−/−) cells (B). Cells were transfected with either pG13 […] reporter plasmid, a p53-driven p21 promoter, in HEK 293 cells or cotransfected with wild-type (wt) p53 in K562 cells. After 24 h post-transfection, cells were treated for 12 h with 10 μM concentration of various TAT-SMAR1 chimeric peptides. Y axis represents the fold luciferase activity (mean±SD of three independent experiments).
(§3) Luciferase reporter assay: HEK 293 (p53^+/+) and K562 (p53^−/−) cells were grown in DMEM supplemented with 10% FBS in the presence of 5% CO2 at 37° C., a total number of 1×10^6, cells were plated on a 6-well plate. After 24 h, cells were transiently transfected using lipofectamine-2000 with either 1 μg of p21 expression plasmid having luciferase reporter gene or 5 μg p21 luciferase along with wt p53 construct in K562 cell line. Two micrograms of pRL-CMV (Renilla luciferase reporter plasmid) was included in all transfections to normalize the transfection efficiency. Thirty six hours post-transfection, cells were treated with 10 μM of either P44 peptide or its various mutants. The cells were harvested 12 h post-treatment, washed with PBS and lysed in 1× Passive lysis buffer (Promega). After three freeze-thaw cycles, cells were spun at 10,000 rpm at 4° C. for 20 min. The supernatants were collected and protein concentrations were estimated spectrophotometrically using Bradford reagent as (BioRad, CA). According to the manufacturer's instructions, luciferase activity was assessed using the dual luciferase assay reporter kit (Promega). The luciferase activity was measured by using Fluoroskan Ascent Luminometer (Labsystems). For all the luciferase assays, the data shown are the mean+SD of three independent experiments.

[2] = system: p53-driven p21 promoter in K562 (p53-/-) cells; experiment: p21 luciferase reporter assay in K562 (p53-/-) cells; assay type: cell-based; conditions: 10 μM peptide; for activation of p53 (p21 promoter driven luciferase activity): K562 (p53-/-) co-transfected with p21 luciferase reporter and p53 constructs, 12 h
Experimental: as §1, §2, §3

[3] = biological target: T1, p53 (serine-15 phosphorylation) (Homo sapiens, UniProt P04637); experiment: Western blotting for total p53 and phospho serine-15 p53 in peptide-treated HEK 293 cells; assay type: cell-based; conditions: for p53 activation (pSer-15 p53 level): HEK 293, 10 μM peptide, 12 h (FIG. 4A)
T1 construct: HEK 293 (p53^+/+) cells; endogenous in cells; host or cells: HEK 293
T1 sequence (P04637 whole entry): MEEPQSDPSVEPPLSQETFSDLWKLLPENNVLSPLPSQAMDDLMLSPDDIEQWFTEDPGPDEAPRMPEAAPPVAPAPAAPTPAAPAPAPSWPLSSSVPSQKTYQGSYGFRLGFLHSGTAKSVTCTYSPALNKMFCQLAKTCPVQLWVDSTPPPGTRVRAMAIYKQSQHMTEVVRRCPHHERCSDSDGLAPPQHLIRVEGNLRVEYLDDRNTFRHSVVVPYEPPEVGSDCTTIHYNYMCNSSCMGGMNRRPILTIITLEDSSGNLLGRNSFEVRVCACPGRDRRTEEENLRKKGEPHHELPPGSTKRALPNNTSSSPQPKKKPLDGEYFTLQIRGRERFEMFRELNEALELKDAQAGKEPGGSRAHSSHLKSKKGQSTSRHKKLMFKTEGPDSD
Experimental: P44 peptide controls the activity of cell cycle regulatory proteins: The minimal dose of P44 peptide that was functionally effective in activating p53 was evaluated by incubating HEK 293 cells with varying concentrations of P44 peptide (1-100 μM) (FIG. 3A) and after 12 h of incubation, protein lysates were prepared and processed for immunoblotting with total p53 (DO-1) and p53 ser-15 phospho-specific antibodies. […] However, there was a 4.5-fold increase in the expression of phosphorylated p53 (pSerine-15 p53) in P44 peptide-treated cells (FIG. 3A, lanes 2-6). To exclude the possibility that p53 activation is an effect of the protein transduction domain of HIV-1 TAT protein, similar set of experiment was performed using TAT-PTD peptide alone (consisting of only the 11-mer TAT-sequence). […] This observation reconfirmed that the RS domain (288-350 aa) of SMAR1 could exclusively activate p53 by mediating its phosphorylation specifically at serine-15 residue. Serine-15 phosphorylation of p53 is associated with its increased transcription efficiency, decreased affinity for MDM2, and its increased nuclear retention. One of the target genes activated by p53 is p21, an inhibitor of a subset of the cyclin-dependent kinases including cdc-2 (Sherr, C. J., and Roberts, J. M. (1999) Genes Dev. 13, 1501-1512). To evaluate the significance of peptide-mediated p53 activation, P44 peptide-treated lysates were further checked for tyrosine 15 phosphorylation of cdc2. […] HEK 293 cells were treated with SM peptide and checked for p53 as well as pcdc-2 levels.
Serine 347 residue of SMAR1: critical for mediating the effects of full-length SMAR1: Once it was established that the serine motif (SSSSYS) plays a pivotal role in SMAR1-mediated p53 activation, it got necessary to identify the serine residue within this motif that might be necessary in mediating these effects. To identify the critical serine residue within P44 peptide, various point-mutant peptides were custom synthesized, that varied with respect to the position of serine residue that was mutated (Table 1). To evaluate the functionality of mutant chimeric TAT-SMAR1 peptides [PS347A, PS348A, PS349A, PS350A and RS mutant (SM)] in comparison to the TAT-SMAR1 WT peptide (P44), HEK 293 cells were treated with 10 μM concentration of either of the peptides and protein lysates were prepared after 12 h incubation period. The lysates were then processed for immunoblotting with pSer-15 p53 and pcdc-2 antibodies. […] However, this was not the case with other mutated peptides. When the alanine was replaced back to serine at the 347 residue (FIG. 4A, lanes 3-5), the functionality of the peptide was restored as observed with increase in pcdc-2 levels. […] However, in case of SM (where serine residues from 347-350 were replaced by alanines) treated cells (FIG. 4A, lane 7), there was no difference in the pSer-15 p53 as well as pcdc-2 levels compared to either untreated or PS347A treated cells (FIG. 4A, lanes 1 and 2, respectively).
FIG. 3. P44 peptide activates p53-mediated cell cycle pathway. A, HEK 293 cells were seeded at a density of 5×10^5 and after 24 h, was incubated with increasing concentrations of the TAT-SMAR1 WT (P44) peptide. Protein lysates were prepared and then immunoblotted with antibodies to total p53, phospho serine-15. B, The same set of experiment was repeated with TAT PTD peptide representing the PTD carrier sequence alone and immunoblotted with phospho serine-15, in comparison of P44 treated cells. C, The status of phospho cdc-2 was further analyzed in P44 peptide treated cells. Total […] was used as an internal control. D, The same set of experiments were again repeated using TAT-SMAR1 RS mutant (SM) peptide and whole cell lysates were probed for phospho p53 serine-15 and pcdc-2 antibodies. […] was used as a loading control.
FIG. 4. Serine 347 residue of SMAR1 mediates p53 activation and stabilization. […]

[4] = system: protein kinase C (PKC) family of proteins; experiment: In vitro phosphorylation (kinase) assay with HEK 293 whole cell extract; assay type: biochemical; conditions: for phosphorylation of peptide by extract of staurosporine-treated cells: extract from 293 cells treated with 20 nM staurosporine (PKC inhibitor); for phosphorylation of peptide by whole cell extract: extract from untreated 293 cells

| Sequence | activation of p53 (p21 promoter driven luciferase activity) [1] | activation of p53 (p21 promoter driven luciferase activity) [2] | p53 activation (pSer-15 p53 level) [3] | phosphorylation of peptide by extract of staurosporine-treated cells [4] | expression level of p53 phospho-serine 15 compared to untreated cells ([3]; HEK 293, SM peptide-treated lysates (FIG. 3D)) | phosphorylation of peptide by whole cell extract [4] | p21 promoter luciferase activity with peptide alone ([2]; K562 (p53-/-) cells without p53 construct) | increase in expression of phosphorylated p53 (pSerine-15 p53) ([3]; HEK 293, P44 1-100 μM, 12 h) | total p53 expression (DO-1) ([3]; HEK 293, P44 1-100 μM, 12 h) | increased γ-P32 ATP incorporation in comparison to mutant counterpart (SM) ([4]; whole cell extract from untreated 293 cells) |
| --- | --- | --- | --- | --- | --- | --- | --- | --- | --- | --- |
| YGRKKRRQRRRTAWRRKQRGQSLAVKSFSRRTPSASSYSASETM [PS348A, point mutant of P44, serine 348 replaced by alanine] | No significant alteration | No significant alteration | No significant decrease | failed to phosphorylate |  |  |  |  |  |  |
| YGRKKRRQRRRTAWRRKQRGQSLAVKSFSRRTPAAAAYSASETM [SM, P44 mutant where serine residues from 347-350 were replaced by alanines] | complete loss | complete loss | no difference | no difference | no increase | not and further reduction in its phosphorylation compared to PS347A peptide |  |  |  |  |
| YGRKKRRQRRRTAWRRKQRGQSLAVKSFSRRTPSSSSYSASETM [P44, 33 mer SMAR1 peptide (residues 324-357) conjugated with 11-mer TAT-PTD] | 2 fold | about 1.5 fold |  | failed to phosphorylate |  | gets phosphorylated | no activity | 4.5 fold | slight increase | 6 to 7 fold |
| YGRKKRRQRRRTAWRRKQRGQSLAVKSFSRRTPSSASYSASETM [PS349A, point mutant of P44, serine 349 replaced by alanine] | No significant alteration | No significant alteration | No significant decrease | failed to phosphorylate |  |  |  |  |  |  |
| YGRKKRRQRRRTAWRRKQRGQSLAVKSFSRRTPSSSAYSASETM [PS350A, point mutant of P44, serine 350 replaced by alanine] | No significant alteration | No significant alteration | No significant decrease | failed to phosphorylate |  |  |  |  |  |  |
| YGRKKRRQRRRTAWRRKQRGQSLAVKSFSRRTPASSSYSASETM [PS347A, point mutant of P44, serine 347 replaced by alanine] | complete loss | complete loss | no significant activation | no difference |  | abolished |  |  |  |  |
